Here are results for 30 compounds from patent US10717725B2, “Pyrrolidine GPR40 modulators” (BRISTOL-MYERS SQUIBB COMPANY, priority 2014, dated 2020).

Structures can show the parent of a compound that is named as a salt. Where two headings read alike, the source gives them in different places.

The target in experiment [1] is T1, hGPR40 (Homo sapiens, UniProt O14842). In words: FDSS-based intracellular calcium assay in cell lines expressing GPR40. Details: 3xFLAG; expressed in transfected cells. The conditions noted are these: intracellular Ca2+ response, cells expressing GPR40, FDSS reader. The procedure:
FDSS-Based Intracellular Calcium Assay
Cell lines expressing GPR40 are generated using the pDEST-3×FLAG gene expression system and are cultured in culture medium comprising the following components: F12 (Gibco #11765), 10% lipid deprived fetal bovine serum, 250 μg/ml zeocin and 500 μg/ml G418. To conduct the fluorescent imaging plate reader (FLIPR)-based calcium flux assay to measure intracellular Ca^2+ response, cells expressing GPR40 are plated on 384 well plates (BD Biocoat #356697) at a density of 20,000 cells/20 μL medium per well in phenol red and serum-free DMEM (Gibco #21063-029) and incubated overnight. Using BD kit #s 80500-310 or -301, the cells are incubated with 20 μL per well of Hank's buffered salt solution with 1.7 mM probenecid and Fluo-3 at 37° C. for 30 min. Compounds are dissolved in DMSO and diluted to desired concentrations with assay buffer and added to the cells as 3× solution (20 μL per well). Run fluorescence/luminescence reader FDSS (Hamamatsu) to read intracellular Ca^2+ response.
A general note: A change in cytosolic calcium serves as a functional read-out for many receptors and channels.

Experiment [2] has as its target T1, hGPR40.

T1 sequence (O14842 whole entry): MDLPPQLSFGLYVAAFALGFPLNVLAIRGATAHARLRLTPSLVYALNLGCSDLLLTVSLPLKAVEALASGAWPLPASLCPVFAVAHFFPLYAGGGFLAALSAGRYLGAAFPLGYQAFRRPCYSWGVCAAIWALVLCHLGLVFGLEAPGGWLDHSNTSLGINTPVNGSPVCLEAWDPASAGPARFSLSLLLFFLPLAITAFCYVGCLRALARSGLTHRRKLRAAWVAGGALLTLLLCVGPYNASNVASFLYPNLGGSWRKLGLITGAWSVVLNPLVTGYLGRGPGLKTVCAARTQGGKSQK

On to `COCCCO[C@H]1CN(c2ccc(OC3CCN(c4cc(OC)ncc4Cl)CC3CC(C)C)nc2)[C@@H](CC(=O)O)[C@@H]1C` (single isomer, unassigned) [Example 18, Isomer 1], for which the EC50 at hGPR40 [1] stood at 1.3 µM.
Consider `COCCCO[C@H]1CN(c2ccc(OC3CCN(c4cc(OC)ncc4Cl)CC3)cc2)[C@@H](CC(=O)O)[C@@H]1C` [Example 4, 2-((2S,3S,4R)-1-(4-((1-(5-Chloro-2-methoxypyridin-4-yl)piperidin-4-yl)oxy)phenyl)-4-(3-methoxypropoxy)-3-methylpyrrolidin-2-yl)acetic acid], for which the EC50 on hGPR40 [1] stood at 0.073 µM; at hGPR40 [2] it was 0.013 µM.
Regarding `CCOc1ccc(F)c(N2CCC(Oc3ccc(N4C[C@H](OCCCOC)[C@@H](C)[C@@H]4CC(=O)O)cc3)CC2)c1` [Example 3, 2-((2S,3S,4R)-1-(4-((1-(5-Ethoxy-2-fluorophenyl)piperidin-4-yl)oxy)phenyl)-4-(3-methoxypropoxy)-3-methylpyrrolidin-2-yl)acetic acid, HCl], the EC50 at hGPR40 [1] came out at 0.2 µM.
For `CCOc1ccc(F)c(N2CCC(Oc3ccc(N4C[C@H](OCCOC)C[C@@H]4CC(=O)O)cc3)CC2)c1` [Example 13, 2-((2R,4R)-1-(4-((1-(5-Ethoxy-2-fluorophenyl)piperidin-4-yl)oxy)phenyl)-4-(2-methoxyethoxy)pyrrolidin-2-yl)acetic acid, TFA], the EC50 at hGPR40 [1] was determined as 1 µM.
In the case of `COCCCO[C@H]1CN(c2cnc(OC3CCN(c4cc(OC)ncc4Cl)CC3C)c(C(F)(F)F)c2)[C@@H](CC(=O)O)[C@@H]1C` (single isomer, unassigned) [Example 24], the concentration for a half-maximal effect (EC50) on hGPR40 [1] amounted to 0.065 µM.
As for “2-((2S,3S,4R)-1-(4-(((3,4-trans)-1-(5-Chloro-2-methoxypyridin-4-yl)-3-methylpiperidin-4-yl)oxy)phenyl)-4-(3-methoxy-2-methylpropoxy)-3-methylpyrrolidin-2-yl)acetic acid [Example 21, Isomer 1]”, the concentration for a half-maximal effect (EC50) on hGPR40 [1] turned out to be 0.12 µM.
As to `CCOc1ccc(F)c(N2CCC(Oc3ccc(N4C[C@H](OCCCS(C)(=O)=O)[C@@H](C)[C@@H]4CC(=O)O)cc3)CC2)c1` [Example 16, 2-((2S,3 S,4R)-1-(4-((1-(5-Ethoxy-2-fluorophenyl)piperidin-4-yl)oxy)phenyl)-3-methyl-4-(3-(methylsulfonyl)propoxy)pyrrolidin-2-yl)acetic acid], at hGPR40 [1], the EC50 is 0.98 µM.
`COCCOCO[C@H]1CN(c2ccc(OC3CCN(c4cc(OC)ncc4Cl)CC3C)cc2)[C@@H](CC(=O)O)[C@@H]1C` (single isomer, unassigned) [Example 28]: the EC50 on hGPR40 [1] is 0.18 µM.
Turning to `COCCCO[C@H]1CN(c2ccc(OC3CCN(c4cc(OC)ncc4Cl)CC3CC(C)C)nc2)[C@@H](CC(=O)O)[C@@H]1C` (single isomer, unassigned) [Example 18, Isomer 2], at hGPR40 [1], the EC50 was 0.29 µM.
Turning to `CCOc1ccc(F)c(N2CCC(Oc3ccc(N4C[C@H](OCCCOC)[C@@H](C)[C@@H]4CC(=O)O)cn3)CC2)c1` [Example 5, 2-((2S,3S,4R)-1-(6-((1-(5-Ethoxy-2-fluorophenyl)piperidin-4-yl)oxy)pyridin-3-yl)-4-(3-methoxypropoxy)-3-methylpyrrolidin-2-yl)acetic acid], on hGPR40 [1], the EC50 was found to be 0.17 µM.
In the case of `COCCCO[C@H]1CN(c2ccc(OC3CCN(c4cc(OC)ncc4Cl)CC3CC(C)C)cc2)[C@@H](CC(=O)O)[C@@H]1C` (single isomer, unassigned) [Example 19, Isomer 2], the EC50 at hGPR40 [1] was 0.23 µM.
On to `COCCCO[C@H]1CN(c2cnc(OC3CCN(c4cc(OC)ncc4Cl)CC3C)c(F)c2)[C@@H](CC(=O)O)[C@@H]1C` (single isomer, unassigned) [Example 22], for which the EC50 at hGPR40 [1] was found to be 0.089 µM.
On the same count and under the same terms, as for “2-((2S,3S,4R)-1-(4-(((3,4-trans)-1-(5-Chloro-2-methoxypyridin-4-yl)-3-methylpiperidin-4-yl)oxy)phenyl)-4-(3-methoxy-2-methylpropoxy)-3-methylpyrrolidin-2-yl)acetic acid [Example 21, Isomer 2]”, the figure is 0.1 µM; as for `COCCCO[C@H]1CN(c2ccc(OC3CCN(c4cc(OC)ncc4Cl)CC3C)cc2F)[C@@H](CC(=O)O)[C@@H]1C` (single isomer, unassigned) [Example 26], 0.11 µM; as for `COCCCO[C@H]1CN(c2ccc(OC3CCN(c4cc(OC)ncc4Cl)CC3CC(C)C)cc2)[C@@H](CC(=O)O)[C@@H]1C` (single isomer, unassigned) [Example 19, Isomer 1], 1.5 µM.
For `COCCCO[C@H]1CN(c2cnc(O[C@@H]3CCN(c4cc(OC)ncc4Cl)C[C@H]3C)nc2)[C@@H](CC(=O)O)[C@@H]1C` [Example 33, 2-((2S,3 S,4R)-1-(2-(((3R,4R)-1-(5-Chloro-2-methoxypyridin-4-yl)-3-methylpiperidin-4-yl)oxy)pyrimidin-5-yl)-4-(3-methoxypropoxy)-3-methylpyrrolidin-2-yl)acetic acid], the EC50 on hGPR40 [1] was determined as 0.101 µM.
Regarding `CCOc1ccc(F)c(N2CCC(Oc3ccc(N4C[C@H](OCCCOC)[C@@H](C)[C@@H]4CC(=O)O)cn3)C(C)C2)c1` (single isomer, unassigned) [Example 9, HCl], the EC50 on hGPR40 [1] worked out at 0.17 µM; at hGPR40 [2], 0.035 µM.
`CCOc1ccc(F)c(N2CCC(Oc3ccc(N4C[C@H](OCCCOC)[C@@H](C)[C@@H]4CC(=O)O)cc3)C(C)C2)c1` (single isomer, unassigned) [Example 14, HCl]: the results for the EC50 on hGPR40 [1] and on hGPR40 [2] were 0.051 µM and 0.007 µM, respectively.
In the case of `CCc1cc(N2CCC(Oc3ccc(N4C[C@H](OCCCOC)[C@@H](C)[C@@H]4CC(=O)O)cc3)CC2)c(Cl)cn1` [Example 8, 2-((2S,3S,4R)-1-(4-((1-(5-Chloro-2-ethylpyridin-4-yl)piperidin-4-yl)oxy)phenyl)-4-(3-methoxypropoxy)-3-methylpyrrolidin-2-yl)acetic acid, HCl], the EC50 on hGPR40 [1] came out at 1.1 µM.
`COCCCO[C@H]1CN(c2ccc(O[C@@H]3CCN(c4cc(OC)ncc4Cl)C[C@H]3C)cc2)[C@@H](CC(=O)O)[C@@H]1C` (single isomer, unassigned) [Example 1]: the EC50 at hGPR40 [1] is 0.056 µM; on hGPR40 [2], 0.005 µM.
Take `COCCCO[C@H]1CN(c2ccc(OC3CCN(c4cc(OC)ncc4Cl)CC3C)cc2F)[C@H](CC(=O)O)[C@@H]1C` (single isomer, unassigned) [Example 27]: the EC50 at hGPR40 [1] was determined as 2 µM.
The same measure, in the same setting: as for `COCCCO[C@H]1CN(c2ccc(OC3CCN(c4cc(OC)ncc4Cl)CC3C)c(F)c2)[C@@H](CC(=O)O)[C@@H]1C` (single isomer, unassigned) [Example 7], the figure is 0.097 µM.
Consider `CCOc1ccc(F)c(N2CCC(Oc3ccc(N4C[C@H](OCCCOC)[C@@H](C)[C@@H]4CC(=O)O)cc3F)C(C)C2)c1` (single isomer, unassigned) [Example 20], for which the EC50 at hGPR40 [1] stood at 0.11 µM.
Same read-out and setting: as for `COc1cc(N2CCC(Oc3ccc(N4C[C@H](OCCCC#N)[C@@H](C)[C@@H]4CC(=O)O)cc3)C(C)C2)c(Cl)cn1` (stereo partly drawn) [Example 32, 2-((2S,3S,4R)-1-(4-(((3,4-trans)-1-(5-Chloro-2-methoxypyridin-4-yl)-3-methylpiperidin-4-yl)oxy)phenyl)-4-(3-cyanopropoxy)-3-methylpyrrolidin-2-yl)acetic acid], the figure is 0.19 µM.
As to `COCCCO[C@H]1CN(c2ccc(OC3CCN(c4cc(OC)ncc4Cl)CC3C)nc2)[C@@H](CC(=O)O)[C@@H]1C` (stereo partly drawn) [Example 2, 2-((2S,3S,4R)-1-(6-(((3,4-trans)-1-(5-Chloro-2-methoxypyridin-4-yl)-3-methylpiperidin-4-yl)oxy)pyridin-3-yl)-4-(3-methoxypropoxy)-3-methylpyrrolidin-2-yl)acetic acid, HCl], the values for the EC50 on hGPR40 [1] and on hGPR40 [2] were 0.18 µM and 0.027 µM, respectively.
`COCCCO[C@H]1CN(c2cnc(OC3CCN(c4cc(OC)ncc4Cl)CC3C)c(C)c2)[C@@H](CC(=O)O)[C@@H]1C` (single isomer, unassigned) [Example 25]: the EC50 at hGPR40 [1] worked out at 0.3 µM.
Turning to `COCCCO[C@H]1CN(c2cnc(OC3CCN(c4cc(OC)ncc4Cl)CC3)c(C(F)(F)F)c2)[C@@H](CC(=O)O)[C@@H]1C` [Example 30, 2-((2S,3S,4R)-1-(6-((1-(5-Chloro-2-methoxypyridin-4-yl)piperidin-4-yl)oxy)-5-(trifluoromethyl)pyridin-3-yl)-4-(3-methoxypropoxy)-3-methylpyrrolidin-2-yl) acetic acid], the EC50 on hGPR40 [1] is 0.061 µM.
As for `COCCCO[C@H]1CN(c2ccc(OC3CCN(c4cc(OC)ncc4Cl)CC3)nc2)[C@@H](CC(=O)O)[C@@H]1C` [Example 6, 2-((2S,3S,4R)-1-(6-((1-(5-Chloro-2-methoxypyridin-4-yl)piperidin-4-yl)oxy)pyridin-3-yl)-4-(3-methoxypropoxy)-3-methylpyrrolidin-2-yl)acetic acid], the EC50 on hGPR40 [1] was determined as 0.2 µM; at hGPR40 [2], 0.019 µM.
As to `CCOc1ccc(F)c(N2CCC(Oc3ccc(N4C[C@H](CCCOC)C[C@@H]4CC(=O)O)cc3)CC2)c1` [Example 10, 2-((2R,4R)-1-(4-((1-(5-Ethoxy-2-fluorophenyl)piperidin-4-yl)oxy)phenyl)-4-(3-methoxypropyl)pyrrolidin-2-yl)acetic acid, TFA], the EC50 on hGPR40 [1] was determined as 0.38 µM; on hGPR40 [2] it was 0.047 µM.
For `CCCCOc1cc(N2C[C@H](OCCCOC)[C@@H](C)[C@@H]2CC(=O)O)cnc1OC1CCN(c2cc(OC)ncc2Cl)CC1C` (single isomer, unassigned) [Example 23, TFA], the EC50 at hGPR40 [1] turned out to be 0.11 µM.

A word on the EC50: it is the concentration at which the effect is half-maximal.
